In one test the test system is P. inhibens ΔmetE mutant. In words: Lag phase shortening in ΔmetE mutant. The test is classed as cell-based, Phaeobacter inhibens. The conditions noted are these: 2 μM DMSP, minimal media. On the procedure:
(§1) For creation of P. inhibens knockout cells, ˜1,000 bp regions upstream and downstream of the gene of interest were amplified by PCR (Phusion High-Fidelity DNA polymerase, Thermo Scientific), using primers that added homologous regions to gentamycin or kanamycin resistance markers. The fragments were assembled and cloned into the TOPOII vector (Invitrogen) using restriction-free cloning (Peleg Y. & Unger T., 2014), generating a knockout (KO) plasmid. P. inhibens electrocompetent cells (300 μl) were transformed with 10 μg of the constructed KO plasmid by a pulse of 1.8 kV (Bio Rad). Cells were selected on ½YTSS agar plates containing 30 μg/ml gentamycin or 150 μg/ml kanamycin. Successful knockouts in single cell clones were verified by PCR and sanger sequencing.
P. inhibens harbors another methionine synthase encoded by metE (FIGS. 1C and 4; gene 65). To test the possible contribution of this enzyme to lag phase shortening the inventors knocked-out the gene and examined the performance of the mutant strain. […] To further rule out the involvement of MetE in lag phase shortening, the inventors perturbed the function of MetE using an inhibitor of its methyl donor. To produce methionine, MetE utilizes 5-methyl-tetrahydrofolate (THF) as a methyl donor (Pejchal and Ludwig, 2005). THF is central in the process of bacterial nucleotide production (Quinlivan et al., 2000).

The next test has as its system E. coli. Put plainly: Lag phase shortening in E. coli. Particulars: treatment with algal metabolites. The test is classed as cell-based, Escherichia coli. From the text: To explore whether lag phase shortening is a general mechanism among bacteria, the inventors tested the effect of methylated compounds in bacteria with different lifestyles. […] Since methylated compounds are a hallmark of photosynthesizing organisms, the inventors next tested a variety of bacteria that are plant-associated. […] Finally, to establish the prevalence of lag phase shortening among bacteria, the inventors tested the model bacterium E. coli. This bacterium is not commonly found associated with photosynthesizing organisms, and thus, is unlikely to respond to algal metabolites. […] The synchrony between specific compounds and different groups of bacteria may reflect the natural context […].

Test [1] relates to P. inhibens dmdA KO mutant. Put plainly: Lag phase shortening in dmdA knockout mutant. The test is classed as cell-based, Phaeobacter inhibens. As to the method: as §1
The inventors further sought to better understand why methyl groups shorten the bacterial lag phase. The inventors list at least three cellular scenarios which could explain the effect that methylated compounds have on the lag phase: (1) methyl groups might be a limiting resource; (2) methyl groups might act as a signal that triggers a cellular cascade, which culminates in lag phase shortening; and (3) methylated compounds could accumulate intracellularly and function as osmoprotectants and antioxidants. […]

Test [2] relates to Phaeobacter inhibens DSM 17395. Put plainly: Growth / lag phase shortening assay of P. inhibens pure cultures with glucose. The test is classed as cell-based. As to the method: ASW was adjusted to pH 8 using HCl. If not otherwise stated, the medium was further supplemented with a source of carbon (glucose, 1 mM), nitrogen (NH4Cl, 5 mM), and sulfur (Na2SO4, 33 mM), referred to as ASW+CNS. […] A 96-well Tecan Infinite M Plex plate reader was used for high-resolution monitoring of bacterial growth dynamics at 30° C. An ImageStreamX Flow Imager system (Amnis) was used to characterize bacterial populations during the lag phase (FIG. 6). The growth of bacteria in co-culture with algae was monitored by counting colony forming units (CFU) on ½ YTSS agar plates. The growth of algae was monitored with a CellStream flow cytometer (Merck, Darmstadt, Germany).
To test whether methylated compounds affect the growth of bacteria, the inventors cultivated bacterial pure cultures with glucose as main growth substrate and supplemented the medium with the well-studied methylated compound dimethylsulfoniopropionate (DMSP). DMSP that is naturally produced by microalgae and found in detectable levels in seawater, is known to be metabolized by various bacteria. […] To quantify the lag phase shortening effect, the inventors calculated the Δlag time, which is the time difference between the commence of exponential growth in control cultures compared to treated cultures (FIG. 5B).
To reflect the natural low bacterial abundance in the oligotrophic ocean with low microalgal productivity, the current bacterial growth experiments were routinely initiated with an optical density (OD) of 0.00001. Such low initial ODs challenge the detection of cell divisions that occur prior to reaching an OD of at least 0.001, which is the theoretical limit of detection. To determine the actual length of the lag phase, the inventors analyzed bacterial cultures using imagining flow cytometry.

The mark [3] stands for this setting: artificial seawater medium, 1 mM glucose, micromolar DMSP.

Turning to `C[S+](C)CCC(=O)[O-]` [DMSP, dimethylsulfoniopropionate], the lag phase shortening entry in the test with P. inhibens ΔmetE mutant is given as “exhibited lag phase shortening similar to wild-type bacteria”; with E. coli, “did not shorten the lag phase”; in test [1], “does not shorten the lag phase”. The “amount of DMSP per cell corresponding to the minimal effective concentration” value in test [2] (2 nM DMSP per 25,000 cells/mL) worked out at 80 amol. In addition, the “lag phase shortening in the presence of TMP” value in test [2] (2 μM DMSP, culture with TMP supplemented with nucleotides) was “still elicited lag phase shortening”. Moreover, in test [2] (setting [3]), the growth rate result is on record as “not affected”. In addition, the lag time entry in test [2] (setting [3]) was “the lag time was shortened”. Further, the “lag phase shortening effect under salt stress” value in test [2] (high salt conditions (FIG. 19A)) was “enhance the lag phase shortening effect”. The “growth of the bacterium” value in test [2] (micromolar concentrations of DMSP, glucose as main growth substrate) is listed as “stimulate the growth of the bacterium”. The “minimal DMSP concentration that triggered a significant lag phase shortening” value in test [2] (per 25,000 cells/mL (OD 0.00001), glucose as main carbon source) is 2 nM. Also, the “lag phase shortening effect under temperature stress” value in test [2] (temperatures that deviate from the 30° C. optimum (FIG. 19B)) was “enhance the lag phase shortening effect”.

Values taken from patent publication US20260015574A1, “METHODS FOR SHORTENING LAG PHASE DURATION IN MICROORGANISMS” (YEDA RESEARCH AND DEVELOPMENT CO. LTD., priority 2022, published 2026).
